Results as given in patent US6750008B1, “Methods and compositions for inhibition of membrane fusion-associated events, including HIV transmission” (priority 1999, dated 2004).

Legend:
HIV-1LAI virus [1] = test: Cell fusion assay (HIV-1 induced syncytia formation); assay type: cell-based
From the text: The results of several such experiments are presented herein.

Fab-d = test: ELISA analysis of DP178 binding to the leucine zipper motif of gp41 (Fab-d ELISA); parameters: species or system human; details: reagent alone
Procedure: The amino acid sequence of DP178 used is: […]. […] Each well was washed three times with distilled water then blocked with 3% bovine serum albumin (BSA) for 2 hours. After blocking, peptides with 0.5% BSA in TBST (40 mM Tris-HCl pH7.5, 150 mM NaCl, 0.05% Tween 20) were added to the ELISA plates and incubated at room temperature for 1 hour. After washing three times with TBST, Fab-d was added at a concentration of 10 ng/ml with 0.5% BSA in TBST. The plates were washed three times with TBST after incubation at room temperature for 1 hour. Horse radish peroxidase (HRP) conjugated goat antihuman Fab antiserum at a 2000 fold dilution in TBST with 0.5% BSA was added to each well and incubated at room temperature for 45 minutes. The plates were then washed four times with TBST. The peroxidase substrate o-phenylene diamine (2.5 mg/ml) and 0.15% H2O2 were added to develop the color. The reaction was stopped with an equal volume of 4.5 N H2SO4 after incubation at room temperature for 10 minutes. The optical density of the stopped reaction mixture was measured with a micro plate reader (Molecular Design) at 490 nm.

HIV-2 = test: Fusion inhibition assay, HIV-2 mediated syncytia formation; assay type: cell-based; details: FIG. 5
Procedure: Approximately 7×10^4 Molt cells were incubated with 1×10^4 CEM cells chronically infected with the HIV-1LAI virus in 96-well plates (one-half area cluster plates; Costar, Cambridge, Mass.) in a final volume of 100 μl culture medium as previously described (Matthews, T. J. et al., 1987, Proc. Natl. Acad. Sci. USA 84: 5424-5428). Peptide inhibitors were added in a volume of 10 μl and the cell mixtures were incubated for 24 hr. at 37° C. At that time, multinucleated giant cells were estimated by microscopic examination at a 40× magnification which allowed visualization of the entire well in a single field.

HIV-1LAI virus [2] = test system: HIV-1LAI virus
Procedure: (§1) Synthetic peptides were incubated at 37° C. with either 247 TCID50 (for experiment depicted in FIG. 2), or 62 TCID50 (for experiment depicted in FIG. 3) units of HIV-1LAI virus or 25 TCID50 units of HIV-2NIHZ and CEM CD4^+ cells at peptide concentrations of 0, 0.04, 0.4, 4.0, and 40 μg/ml for 7 days. The resulting reverse transcriptase (RT) activity in counts per minute was determined using the assay described, below, in Section 6.1.5. See Reed, L. J. et al., 1938, Am. J. Hyg. 27: 493-497 for an explanation of TCID50 calculations.
(§2) The micro-reverse transcriptase (RT) assay was adapted from Goff et al. (Goff, S. et al., 1981, J. Virol. 38:239-248) and Willey et al. (Willey, R. et al., 1988, J. Virol. 62:139-147). Supernatants from virus/cell cultures are adjusted to 1% Triton-X100. A 10 μl sample of supernatant was added to 50 μl of RT cocktail in a 96-well U-bottom microtitre plate and the samples incubated at 37° C. for 90 min. The RT cocktail contained 75 mM KCl, 2 mM dithiothreitol, 5 mM MgCl2, 5 μg/ml poly A (Pharmacia, cat. No. 27-4110-01), 0.25 units/ml oligo dT (Pharmacia, cat. No. 27-7858-01), 0.05% NP40, 50 mM Tris-HCl, pH 7.8, 0.5 μM non-radioactive dTTP, and 10 μCi/ml ^32P-dTTP (Amersham, cat. No. PB.10167).
After the incubation period, 40 μl of reaction mixture was applied to a Schleicher and Schuell (S+S) NA45 membrane (or DE81 paper) saturated in 2×SSC buffer (0.3M NaCl and 0.003M sodium citrate) held in a S+S Minifold over one sheet of GB003 (S+S) filter paper, with partial vacuum applied. Each well of the minifold was washed four times with 200 μl 2×SSC, under full vacuum. The membrane was removed from the minifold and washed 2 more times in a pyrex dish with an excess of 2×SSC. Finally, the membrane was drained on absorbent paper, placed on Whatman #3 paper, covered with Saran wrap, and exposed to film overnight at −70° C.
DP178 (SEQ ID:1) was next tested for its ability to block CD-4^+ CEM cell infection by cell free HIV-1 virus. […]

HIV-1IIIB = assay type: cell-based
HIV-2NIHZ = test: Cell free virus infection assay (RT production); assay type: cell-based; details: 25 TCID50 HIV-2NIHZ, CEM cells, 7 days
Procedure: as §1
as §2, with “PB.10167). […]” for “PB.10167).”

[3] = test system: HIV-1IIIB chronically infected CEM cells; assay type: cell-based; details: 10 nM
Procedure: Cell fusion assays were performed as previously described (Matthews et al., 1987, Proc. Natl. Acad. Sci. USA 84: […]). CEM cells (7×10^4) were incubated with HIV-1IIIB chronically infected CEM cells (10^4) in 96-well flat-bottomed half-area plates (Costar) in 100 μl culture medium. Peptide and fusion proteins at various concentrations in 10 μl culture medium were incubated with the cell mixtures at 37° C. for 24 hours. Multinucleated syncytia were estimated with microscopic examination.
No peptide or fusion protein was added in the control samples.

HIV-1/IIIb = test: Anti-HIV assays of DP107/DP178 truncations and mutations; assay type: cell-based; details: worded 'results shown are for 4 ng/ml'
From the text: Anti-HIV assays: The antiviral assays performed were as those described, above, in Section 6.1. Assays utilized HIV-1/IIIb and/or HIV-2 NIHZ isolates. Purified peptides were used, unless otherwise noted in FIGS. 49A-C.

## Enfuvirtide
HIV-1LAI virus [1]
  selectivity as inhibitor of HIV-1-mediated over HIV-2 mediated cell fusion: 4 log
HIV-1LAI virus [1]; FIG. 5, HIV-1 vs HIV-2
  peptide concentration blocking HIV-1-mediated syncytia formation: below 1 ng/ml
HIV-1LAI virus [1]; HIV-1LAI
  complete protection against syncytium formation down to lowest concentration tested: ≤ 12.5 ng/mL
HIV-1LAI virus [1]; Molt cells + chronically HIV-1 infected CEM cells, 24 hr
  lowest effective inhibitory concentration, complete block of virus induced syncytia formation: 1 to 10 ng/mL
HIV-1LAI virus [1]; all other HIV-1 viruses (HIV-1MN, HIV-1RF, HIV-1SF2)
  complete protection against syncytium formation down to lowest concentration used: ≤ 100 ng/mL
Fab-d
  binding of Fab-d: failed to bind
HIV-2
  concentration failing to block HIV-2 mediated syncytia formation: > 10 µg/mL
HIV-1LAI virus [2]; 62 TCID50 HIV-1LAI, CEM cells, 7 days
  IC50, inhibition of RT production: about 31 ng/ml
HIV-1LAI virus [2]; cell free virus infection
  potency as HIV-1 inhibitor relative to HIV-2 inhibitor: two logs more potent
HIV-1IIIB
  IC90: 80 nM
HIV-2NIHZ
  IC50 for HIV-2NIHZ: much higher
[3]
  syncytia in HIV-1 induced cell-cell fusion: not observable syncytia
HIV-1/IIIb
  anti-HIV antiviral data, results shown (FIGS. 49A-C): 4 ng/mL
